The text below walks through data of patent EP0097039A1, “5-(E-2-halovinyl)-2'-deoxyuridine derivatives, processes for their preparation, pharmaceutical compositions containing them, and their use in treating viral infections” (BEECHAM GROUP PLC, priority 1982, dated 1983).

Where two headings read alike, the source gives them in different places. Where only a bound is given, the exact number is not on record here.

In data set [1] the test system is Herpes Simplex type 1 virus (HFEM strain). The experiment in a line: plaque reduction assay in Vero cells infected with Herpes Simplex type 1 virus. Particulars: Vero cells, HSV-1 HFEM strain, 4 days at 37 C; for EC50: read-out: PDD50 (the source's name). In kind it is cell-based. As to the method: (§1) Vero (African Green Monkey Kidney) cells were grown to confluence in 24 well multidishes, each well being 1.6 cm in diameter. The cells were infected with Herpes Simplex type 1 virus (HFEM strain) and overlaid with 0.5 mL of 0.9% agarose (w/v) in maintenance medium in concentrations ranging from 100 to 0.03 µg/ml in half-log dilution steps, were added in 0.5 mL volume. The virus infected cultures were then incubated at 37 °C for 4 days before fixing in 4% formaldehyde solution and staining with carbolfuchsin.

Data set [2] is described as follows: cytotoxicity (minimum toxic concentration) in the infected Vero cell cultures. Format: cell-based, African Green Monkey. Particulars: monkey; minimum concentration of test compound which caused cytotoxicity; Vero cells, highest concentration tested 100 µg/ml; read-out: MTD. The protocol:
as §1

Data set [3] deals with Vero (African Green Monkey Kidney) cells. The description is as above. The conditions noted are these: vero cells, 96 h. In kind it is cell-based. The protocol:
as §1

Where [4] appears, read: concentration causing 50% reduction in number of virus plaques.

Take `O=C(COc1ccccc1)OC[C@H]1O[C@@H](n2cc(/C=C/Br)c(=O)[nH]c2=O)C[C@@H]1OC(=O)COc1ccccc1` [Example 36, 5-(E-2-Bromovinyl)-2'-deoxy-3',5'-di-0-(phenoxyacetyl)-uridine]: the EC50 amounted to 0.57 µg/mL in data set [1] (Human alphaherpesvirus 1, 96 h, concentration causing 50% reduction in number of virus plaques) and 0.95 µM in data set [1] (Human alphaherpesvirus 1, 96 h, same PD50 expressed in µM). For the same compound, in data set [2], the MCC at 96 h is > 100 µg/mL.
In data set [1] (setting [4]), “E-5-(2-Bromovinyl)-3'-trimethylsilyl-5'-(4-dipropylsulphamoylbenzoyl- oxyacetyl)-2'-deoxyuridine [Example 14]” gave a PDD50 of 0.32 µg/mL. The EC50 in data set [1] (same PD50 expressed in µM) amounted to 0.48 µM. Moreover, in data set [3], the MTD is >100 µg/mL.
For the compound “E-5-(2-Bromovinyl)-5'-(L-2-t-butyldimethylsilyloxy-3-phenylpropionyl)-2'-deoxyuridine [Example 16]”, the PDD50 in data set [1] (setting [4]) was 0.63 µg/mL. The EC50 in data set [1] (same PD50 expressed in µM) stood at 0.68 µM. Also, the MTD in data set [3] was >100 µg/mL.
